Measured values from US20130317064A1 (priority 2011, published 2013).

- melting point: 102 to 105 °C
SMILES: Cc1cc(C(F)(F)F)nn1CC(=O)N1CCC(c2nc(NC(=O)C3=C(O)CCCC3=O)cs2)CC1 [I.a.001, 2-hydroxy-6-oxo-cyclohex-1-enecarboxylic acid (2-{1-[2-(5-methyl-3-trifluoromethyl-pyrazol-1-yl)-acetyl]-piperidin-4-yl}-thiazol-4-yl)-amide]
